Experimental data from patent publication US8399459B2, “1,4 oxazines as BACE1 and/or BACE2 inhibitors” (Hoffmann-La Roche Inc., priority 2011, dated 2013).
Where a name gives a salt, the structure may show the parent alone.

Target: T1, BACE1 (Homo sapiens, UniProt P56817)
T1 construct: Human HEK293 cells which are stably transfected with a vector expressing a cDNA of the human APP wt gene (APP695); endogenous in cells; host or cells: HEK293 (human), stably transfected with human APP695 wt only
Assay: Cellular Aβ-lowering assay (Aβ40 ELISA, HEK293 cells expressing human APP695)
Format: cell-based
Settings: HEK293 cells stably expressing human APP695; Aβ40 in supernatant after 18-20 hrs
Description: Cellular Aβ-Lowering Assay:
Human HEK293 cells which are stably transfected with a vector expressing a cDNA of the human APP wt gene (APP695) were used to assess the potency of the compounds in a cellular assay. The cells were seeded in 96-well microtiter plates in cell culture medium (Iscove, plus 10% (v/v) fetal bovine serum, glutamine, penicillin/streptomycin) to about 80% confluence and the compounds were added at a 10× concentration in 1/10 volume of medium without FCS containing 8% DMSO (final concentration of DMSO was kept at 0.8% v/v). After 18-20 hrs incubation at 37° C. and 5% CO2 in a humidified incubator the culture supernatant was harvested for the determination of Aβ40 concentrations. 96well ELISA plates (e.g., Nunc MaxiSorb) were coated with monoclonal antibody which specifically recognize the C-terminal end of Aβ40 (Brockhaus et al., NeuroReport 9, 1481-1486; 1998). After blocking of non-specific binding sites with e.g. 1% BSA and washing, the culture supernatants were added in suitable dilutions together with a horseradish peroxidase-coupled Aβ detection antibody (e.g., antibody 4G8, Senetek, Maryland Heights, Mo.) and incubated for 5 to 7 hrs. Subsequently the wells of the microtiter plate were washed extensively with Tris-buffered saline containing 0.05% Tween 20 and the assay was developed with tetramethylbenzidine/H2O2 in citric acid buffer. After stopping the reaction with one volume 1 N H2SO4 the reaction was measured in an ELISA reader at 450 nm wavelength. The concentrations of Aβ in the culture supernatants were calculated from a standard curve obtained with known amounts of pure Aβ peptide.

T1 sequence (P56817 46-501): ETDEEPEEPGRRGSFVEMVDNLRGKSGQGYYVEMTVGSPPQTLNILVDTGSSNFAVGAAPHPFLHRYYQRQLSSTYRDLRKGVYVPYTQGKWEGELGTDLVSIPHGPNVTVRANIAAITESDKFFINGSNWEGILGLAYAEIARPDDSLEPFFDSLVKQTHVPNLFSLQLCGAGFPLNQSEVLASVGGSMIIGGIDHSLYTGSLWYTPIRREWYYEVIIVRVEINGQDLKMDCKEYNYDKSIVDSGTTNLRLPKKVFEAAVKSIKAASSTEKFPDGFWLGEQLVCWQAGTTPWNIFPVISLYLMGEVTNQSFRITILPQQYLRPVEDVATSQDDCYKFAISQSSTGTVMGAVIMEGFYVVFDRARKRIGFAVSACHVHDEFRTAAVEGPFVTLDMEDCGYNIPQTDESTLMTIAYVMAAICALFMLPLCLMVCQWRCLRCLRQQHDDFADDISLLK

Q: For `CC1(c2cccc(-c3cc(Cl)cc(C(=O)N4CCOCC4)c3)c2)COCC(N)=N1` (centres unmarked) [Example 13, [3′-(5-Amino-3-methyl-3,6-dihydro-2H-[1,4]oxazin-3-yl)-5-chloro-biphenyl-3-yl]-morpholin-4-yl-methanone], which IC50 is on record?
A: 2390 nM

Q: With `CC1(c2cccc(-c3ccc4c(c3)OCO4)c2)COCC(N)=N1` (centres unmarked) [Example 22, 5-(3-Benzo[1,3]dioxol-5-yl-phenyl)-5-methyl-5,6-dihydro-2H-[1,4]oxazin-3-ylamine] as the compound, how does the IC50 read?
A: 1060 nM

Q: With `CC1(c2cccc(-c3cc(Cl)cc(C(F)(F)F)c3)c2)COCC(N)=N1` (centres unmarked) [Example 11, 5-(5′-Chloro-3′-trifluoromethyl-biphenyl-3-yl)-5-methyl-5,6-dihydro-2H-[1,4]oxazin-3-ylamine] as the compound, how does the IC50 read?
A: 1840 nM

Q: `CC1(c2cccc(-c3cccc(OC(F)(F)F)c3)c2)COCC(N)=N1` (centres unmarked) [Example 15, 5-Methyl-5-(3′-trifluoromethoxy-biphenyl-3-yl)-5,6-dihydro-2H-[1,4]oxazin-3-ylamine] was tested. Which IC50 did it give?
A: 2310 nM

Q: How did the IC50 turn out when `CC1(c2cccc(-c3ccnc(Cl)c3)c2)COCC(N)=N1` (centres unmarked) [Example 19, 5-[3-(2-chloro-pyridin-4-yl)-phenyl]-5-methyl-5,6-dihydro-2H-[1,4]oxazin-3-ylamine formate] was run?
A: 1060 nM

Q: For `CC1(c2cccc(-c3cccc(CC#N)c3)c2)COCC(N)=N1` (centres unmarked) [Example 17, [3′-(5-Amino-3-methyl-3,6-dihydro-2H-[1,4]oxazin-3-yl)-biphenyl-3-yl]-acetonitrile], which IC50 is on record?
A: 1060 nM

Q: How did the IC50 turn out when `CC1(c2cccc(C#Cc3ccccc3)c2)COCC(N)=N1` (centres unmarked) [Example 54, 5-Methyl-5-(3-phenylethynyl-phenyl)-5,6-dihydro-2H-[1,4]oxazin-3-ylamine] was run?
A: 1470 nM

Q: For `CC1(c2cccc(C#Cc3ccsc3)c2)COCC(N)=N1` (centres unmarked) [Example 55, 5-Methyl-5-(3-thiophen-3-ylethynyl-phenyl)-5,6-dihydro-2H-[1,4]oxazin-3-ylamine], which IC50 is on record?
A: 2780 nM

Q: With `CC1(c2cccc(-c3cc(F)cc(F)c3)c2)COCC(N)=N1` (centres unmarked) [Example 28, 5-(3′,5′-Difluoro-biphenyl-3-yl)-5-methyl-5,6-dihydro-2H-[1,4]oxazin-3-ylamine] as the compound, how does the IC50 read?
A: 2080 nM

Q: How did the IC50 turn out when `CC1(c2cccc(-c3ccsc3)c2)COCC(N)=N1` (centres unmarked) [Example 3, 5-Methyl-5-(3-thiophen-3-yl-phenyl)-5,6-dihydro-2H-[1,4]oxazin-3-ylamine] was run?
A: 1060 nM

Q: With `COc1ccc2ccc(-c3cccc(C4(C)COCC(N)=N4)c3)cc2c1` (centres unmarked) [Example 59, 5-[3-(7-Methoxy-naphthalen-2-yl)-phenyl]-5-methyl-5,6-dihydro-2H-[1,4]oxazin-3-ylamine formate] as the compound, how does the IC50 read?
A: 4390 nM

Q: Which IC50 does the source give for `CC1(c2cccc(-c3ccc(F)cc3)c2)COCC(N)=N1` (centres unmarked) [Example 2, 5-(4′-Fluoro-biphenyl-3-yl)-5-methyl-5,6-dihydro-2H-[1,4]oxazin-3-ylamine] here?
A: 1170 nM

Q: How did the IC50 turn out when `COCC#Cc1cccc(C2(C)COCC(N)=N2)c1` (centres unmarked) [Example 42, 5-[3-(3-Methoxy-prop-1-ynyl)-phenyl]-5-methyl-5,6-dihydro-2H-[1,4]oxazin-3-ylamine] was run?
A: 1060 nM

Q: How did the IC50 turn out when `NC1=NC(c2cc(-c3cncc(Cl)c3)ccc2F)(C(F)F)COC1` (centres unmarked) [Example 52, 5-[5-(5-Chloro-pyridin-3-yl)-2-fluoro-phenyl]-5-difluoromethyl-5,6-dihydro-2H-[1,4]oxazin-3-ylamine] was run?
A: 280 nM

Q: How did the IC50 turn out when `CC1(c2cccc(-c3ccc4[nH]ccc4c3)c2)COCC(N)=N1` (centres unmarked) [Example 25, 5-[3-(1H-Indol-5-yl)-phenyl]-5-methyl-5,6-dihydro-2H-[1,4]oxazin-3-ylamine] was run?
A: 6410 nM

Q: `CC1(c2cccc(-c3nc4cc(Cl)ccc4o3)c2)COCC(N)=N1` (centres unmarked) [Example 53, 5-[3-(5-Chloro-benzooxazol-2-yl)-phenyl]-5-methyl-5,6-dihydro-2H-[1,4]oxazin-3-ylamine] was tested. Which IC50 did it give?
A: 1490 nM

Q: For `CC1(c2cccc(-c3cccc(OC(F)F)c3)c2)COCC(N)=N1` (centres unmarked) [Example 14, 5-(3′-Difluoromethoxy-biphenyl-3-yl)-5-methyl-5,6-dihydro-2H-[1,4]oxazin-3-ylamine], which IC50 is on record?
A: 480 nM

Q: How did the IC50 turn out when `CC1(c2cccc(-c3cc(Cl)ccc3Cl)c2)COCC(N)=N1` (centres unmarked) [Example 5, 5-(2′,5′-Dichloro-biphenyl-3-yl)-5-methyl-5,6-dihydro-2H-[1,4]oxazin-3-ylamine] was run?
A: 1090 nM

Q: Which IC50 does the source give for `CC1(c2cccc(-c3ccc(F)cc3F)c2)COCC(N)=N1` (centres unmarked) [Example 27, 5-(2′,4′-Difluoro-biphenyl-3-yl)-5-methyl-5,6-dihydro-2H-[1,4]oxazin-3-ylamine] here?
A: 1060 nM

Q: With `CC1(c2cccc(-c3ccc(F)nc3F)c2)COCC(N)=N1` (centres unmarked) [Example 40, 5-(3-(2,6-difluoropyridin-3-yl)phenyl)-5-methyl-5,6-dihydro-2H-1,4-oxazin-3-amine] as the compound, how does the IC50 read?
A: 530 nM

Q: With `CC1(c2cccc(-c3cccc(Cl)c3)c2)COCC(N)=N1` (centres unmarked) [Example 4, 5-(3′-Chloro-biphenyl-3-yl)-5-methyl-5,6-dihydro-2H-[1,4]oxazin-3-ylamine] as the compound, how does the IC50 read?
A: 390 nM

Q: Which IC50 does the source give for `CC1(c2cccc(-c3cc(Cl)cc(C(N)=O)c3)c2)COCC(N)=N1` (centres unmarked) [Example 12, 3′-(5-Amino-3-methyl-3,6-dihydro-2H-[1,4]oxazin-3-yl)-5-chloro-biphenyl-3-carboxylic acid amide] here?
A: 1120 nM

Q: Which IC50 does the source give for `CC1(c2cccc(-c3ccccc3Cl)c2)COCC(N)=N1` (centres unmarked) [Example 29, 5-(2′-Chloro-biphenyl-3-yl)-5-methyl-5,6-dihydro-2H-[1,4]oxazin-3-ylamine] here?
A: 1060 nM

Q: `CC1(c2cccc(-c3cc(Cl)cnc3Cl)c2)COCC(N)=N1` (centres unmarked) [Example 20, 5-[3-(2,5-Dichloro-pyridin-3-yl)-phenyl]-5-methyl-5,6-dihydro-2H-[1,4]oxazin-3-ylamine] was tested. Which IC50 did it give?
A: 490 nM

Q: `CC1(c2ccc(F)c(-c3cc(Cl)cc(Cl)c3)c2)COCC(N)=N1` (centres unmarked) [Example 31, 5-(3′,5′-Dichloro-6-fluoro-biphenyl-3-yl)-5-methyl-5,6-dihydro-2H-[1,4]oxazin-3-ylamine] was tested. Which IC50 did it give?
A: 1000 nM

Q: For `CC1(c2cccc(-c3cc(Cl)cc(Cl)c3Cl)c2)COCC(N)=N1` (centres unmarked) [Example 6, 5-Methyl-5-(2′,3′,5′-trichloro-biphenyl-3-yl)-5,6-dihydro-2H-[1,4]oxazin-3-ylamine], which IC50 is on record?
A: 4060 nM

Q: How did the IC50 turn out when `Cc1cc(-c2cccc(C3(C)COCC(N)=N3)c2)ccc1Cl` (centres unmarked) [Example 26, 5-(4′-Chloro-3′-methyl-biphenyl-3-yl)-5-methyl-5,6-dihydro-2H-[1,4]oxazin-3-ylamine] was run?
A: 13000 nM

Q: For `CC1(c2cccc(-c3cncc(C#N)c3)c2)COCC(N)=N1` (centres unmarked) [Example 38, 5-(3-(5-Amino-3-methyl-3,6-dihydro-2H-1,4-oxazin-3-yl)phenyl)nicotinonitrile], which IC50 is on record?
A: 310 nM

Q: Which IC50 does the source give for `CC1(c2cccc(C#Cc3ccc(Cl)cn3)c2)COCC(N)=N1` (centres unmarked) [Example 43, 5-[3-(5-Chloro-pyridin-2-ylethynyl)-phenyl]-5-methyl-5,6-dihydro-2H-[1,4]oxazin-3-ylamine] here?
A: 300 nM

Q: For `CC(C)(C)c1ccc(-c2cccc(C3(C)COCC(N)=N3)c2)cc1` (centres unmarked) [Example 18, 5-(4′-tert-butyl-biphenyl-3-yl)-5-methyl-5,6-dihydro-2H-[1,4]oxazin-3-ylamine formate], which IC50 is on record?
A: 6120 nM

Q: With `CC1(c2cccc(-c3ccc4c(c3)OC(F)(F)O4)c2)COCC(N)=N1` (centres unmarked) [Example 21, 5-[3-(2,2-Difluoro-benzo[1,3]dioxol-5-yl)-phenyl]-5-methyl-5,6-dihydro-2H-[1,4]oxazin-3-ylamine] as the compound, how does the IC50 read?
A: 4550 nM

Q: For `CC1(c2cccc(-c3cccc(C#N)c3)c2)COCC(N)=N1` (centres unmarked) [Example 16, 3′-(5-Amino-3-methyl-3,6-dihydro-2H-[1,4]oxazin-3-yl)-biphenyl-3-carbonitrile], which IC50 is on record?
A: 280 nM

Q: How did the IC50 turn out when `CC1(c2cccc(-c3cccnc3F)c2)COCC(N)=N1` (centres unmarked) [Example 39, 5-(3-(2-fluoropyridin-3-yl)phenyl)-5-methyl-5,6-dihydro-2H-1,4-oxazin-3-amine] was run?
A: 280 nM

Q: Which IC50 does the source give for `CC1(c2cccc(-c3cc4ccc(Cl)cc4[nH]3)c2)COCC(N)=N1` (centres unmarked) [Example 24, 5-[3-(6-Chloro-1H-indol-2-yl)-phenyl]-5-methyl-5,6-dihydro-2H-[1,4]oxazin-3-ylamine] here?
A: 12700 nM

Q: `CC1(c2cccc(-c3cncc(Cl)c3)c2)COCC(N)=N1` (centres unmarked) [Example 34, 5-[3-(5-Chloro-pyridin-3-yl)-phenyl]-5-methyl-5,6-dihydro-2H-[1,4]oxazin-3-ylamine] was tested. Which IC50 did it give?
A: 390 nM

Q: For `Cn1ncc2c(-c3cccc(C4(C)COCC(N)=N4)c3)cccc21` (centres unmarked) [Example 23, 5-Methyl-5-[3-(1-methyl-1H-indazol-4-yl)-phenyl]-5,6-dihydro-2H-[1,4]oxazin-3-ylamine], which IC50 is on record?
A: 3660 nM

Q: For `CC1(c2cccc(-c3nc4cc(Cl)ccc4[nH]3)c2)COCC(N)=N1` (centres unmarked) [Example 50, 5-[3-(5-Chloro-1H-benzoimidazol-2-yl)-phenyl]-5-methyl-5,6-dihydro-2H-[1,4]oxazin-3-ylamine], which IC50 is on record?
A: 1280 nM

Q: How did the IC50 turn out when `CC1(c2cccc(-c3ccc(Cl)cn3)c2)COCC(N)=N1` (centres unmarked) [Example 33, 5-[3-(5-Chloro-pyridin-2-yl)-phenyl]-5-methyl-5,6-dihydro-2H-[1,4]oxazin-3-ylamine] was run?
A: 12600 nM
